In patent US6168776A (priority 1997, dated 2001):
Entries after “also recorded” stand apart in the source; their conditions may differ. One block for each compound: values may come before it.

How the values were obtained:
Aβ(10-43) [1] = molecular target: T1, Aβ(10-43) (Homo sapiens, UniProt P05067); assay: Inhibition of [14C] Chrysamine G binding to Aβ(10-43); details: for Ki relative to Chrysamine G / binding activity to Aβ / potency/affinity relative to reference compound: in words; for energy of binding: ΔG=-RT ln Keq, from KD (Chrysamine G) or Ki (aniline derivative); for potency/affinity relative to reference compound: vs Chrysamine G or, for Chrysamine G, vs Congo red
T1 sequence (P05067 681-714): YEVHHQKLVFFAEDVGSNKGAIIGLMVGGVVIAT

PC-12 cells = assay: Protection from Aβ(25-35)-induced toxicity in PC-12 cells (MTT reduction); details: for protective effects in cells incubated with 1 μM Aβ(25-35): Chrysamine G at 0.1 and 1 μM, FIG. 14; for protective effect against Aβ(25-35)-induced decrease in MTT reduction: in words, FIGS. 12 and 13
[2] = Staining of transgenic mouse brain section; details: in words
Text: FIG. 11. […] 26: 241-242 (1973). […] The photomicrograph was obtained using fluorescence microscopy.
(§1) The staining method was that of Stokes and Trickey, J. Clin. Pathol. 26: 241-242 (1973) with 1,4-bis(3-carboxy-4-hydroxyphenylethenyl)-benzene substituted for Congo red.

[3] = Staining of AD brain sections (fluorescence microscopy); parameters: species or system human; details: in words
Method: 26: 241-242 (1973) with 1 mM 1,4-bis(3-carboxy-4-hydroxyphenylethenyl)-benzene substituted for Congo red, but the procedure was otherwise identical. Stained slides were examined using fluorescence microscopy.
as §1

Aβ [4] = details: in words; cited from earlier work
[5] = in words; Tubis et al.; cited from earlier work
amylin = details: in words; cited from earlier work
[6] = Octanol/water partitioning; details: 1-octanol / phosphate buffered saline pH 7.4
[7] = guinea pigs; Tubis et al.; cited from earlier work
Aβ [8] = details: cited from earlier work
[9] = Scatchard analysis of [14C]CG binding to AD brain homogenates
[10] = Total [14C] Chrysamine G binding to AD brain homogenates; parameters: species or system human
[11] = [14C] Chrysamine G binding to Down's syndrome brain homogenates; parameters: species or system human; details: two patients, FIG. 9C
Text: FIGS. 9A, 9B and 9C. […] The data points represent the ratio of [^14 C] […] Horizontal bars represent the mean and error bars represent the standard error for control (circles), and AD brain (diamonds in 9A and 9B). […] Asterisks indicate significant differences compared to control (*p<0.05; **p<0.001). The diamonds in 9C represent a brain from a Down's syndrome patient not yet symptomatic with AD. The triangles in 9C represent a Down's syndrome patient who had developed AD as do the vast majority of Down's syndrome patients by their 40's.

[12] = Tissue levels after i.v. injection of [14C] Chrysamine G in mice (blood-brain barrier); type: in vivo, Swiss-Webster mice; details: 15 to 35 min after i.v. injection
[13] = Total [14C] Chrysamine G binding to control brain homogenates; parameters: species or system human
[14] = Metabolism of [14C] Chrysamine G in mouse brain and liver
[15] = Correlation of [14C]CG binding with neuritic plaque (NP) and neurofibrillary tangle (NFT) counts; parameters: species or system human
Method: FIG. 8B is a graph illustrating the correlation between the amount of [^14 C] […] The filled symbols and heavy lines indicate brains without amyloid angiopathy, the open symbols and dashed lines indicate brains with amyloid angiopathy. The y-axis represents total, absolute [^14 C] […] Approximately 75 μg protein and 150 nM [^14 C] Chrysamine G were used.

Aβ(10-43) [16] = molecular target: T1, Aβ(10-43); assay: Scatchard analysis of [14C] Chrysamine G binding to synthetic Aβ(10-43); details: read-out: dissociation constant; approximately; whether by Scatchard analysis, kinetic methods, or inhibition of binding
[17] = Scatchard analysis of [14C]CG binding to control brain homogenates

Ki relative to Chrysamine G (Aβ(10-43) [1]): about half that of Chrysamine G
SMILES: O=C(O)c1cc(N=Nc2ccc(-c3ccc(N=Nc4ccc(O)c(C(=O)O)c4)c(Br)c3)cc2Br)ccc1O [3,3'-Br2 CG]

loss of activity from Chrysamine G (fold) (Aβ(10-43) [1]; vs Chrysamine G): 7 fold
SMILES: O=C(O)c1cc(N=Nc2ccc(-c3ccc(N=Nc4ccc(O)c(C(=O)O)c4)c(C(=O)O)c3)cc2C(=O)O)ccc1O [3,3'-(COOH)2 CG]

Ki relative to Chrysamine G (Aβ(10-43) [1]): about half that of Chrysamine G
SMILES: O=C(O)c1cc(N=Nc2ccc(-c3ccc(N=Nc4ccc(O)c(C(=O)O)c4)c(Cl)c3)cc2Cl)ccc1O [3,3'-Cl2 CG]

Ki relative to Chrysamine G (Aβ(10-43) [1]): about half that of Chrysamine G
SMILES: O=C(O)c1cc(N=Nc2ccc(-c3ccc(N=Nc4ccc(O)c(C(=O)O)c4)c(I)c3)cc2I)ccc1O [3,3'-I2 CG]

The next lines start with the compound.

SMILES: O=C(O)c1ccccc1O [salicylic acid]
binding activity to Aβ (Aβ(10-43) [1]): total lack of binding activity; also recorded: inactivity

SMILES: O=C(O)c1cc(N=Nc2ccccc2)ccc1O [aniline derivative]
binding activity to Aβ (Aβ(10-43) [1]): decrease in affinity
energy of binding (Aβ(10-43) [1]): 5.5 kcal/mol

SMILES: Oc1ccc(N=Nc2ccc(-c3ccc(N=Nc4ccc(O)cc4)cc3)cc2)cc1 [phenol derivative]
binding activity to Aβ (Aβ(10-43) [1]): completely destroyed binding affinity; also recorded: does not bind to synthetic Aβ
protective effects in cells incubated with 1 μM Aβ(25-35) (PC-12 cells): no protective effects, and perhaps enhanced the toxicity of Aβ
protective effect against Aβ(25-35)-induced decrease in MTT reduction (PC-12 cells): does not prevent Aβ-induced cytotoxicity

SMILES: O=C(O)c1cc(C=Cc2ccc(C=Cc3ccc(O)c(C(=O)O)c3)cc2)ccc1O [1,4-bis(3-carboxy-4-hydroxyphenylethenyl)-benzene]
staining of plaque in transgenic mouse brain [2]: intensely stained plaque
staining relative to Chrysamine G, Congo red, or Thioflavin S ([3]; human AD brain): much more intense than that observed with Chrysamine G, Congo red, or Thioflavin S
staining of human AD brain [3]: Numerous amyloid plaques and neuropil threads can be readily identified as well as a neurofibrillary tangle; also recorded: Visible are a large number of neuritic plaques, a neurofibrillary tangle and frequent neuropil threads

SMILES: O=C(O)c1cc(F)cc(N=Nc2ccc(-c3ccc(N=Nc4cc(F)cc(C(=O)O)c4O)cc3)cc2)c1O [(5-FSA)CG]
potency/affinity relative to reference compound (Aβ(10-43) [1]): one-third as potent

SMILES: O=C(O)c1c(O)ccc(N=Nc2ccc(-c3ccc(N=Nc4ccc(O)c(C(=O)O)c4O)cc3)cc2)c1O [(6-OHSA)CG]
potency/affinity relative to reference compound (Aβ(10-43) [1]): highest affinity compound in this series

SMILES: Nc1c(/N=N/c2ccc(-c3ccc(/N=N/c4cc(S(=O)(=O)O)c5ccccc5c4N)cc3)cc2)cc(S(=O)(=O)O)c2ccccc12 [Congo red]
effect on aggregation of Aβ (Aβ [4]): does inhibit aggregation of Aβ
crossing of the blood-brain barrier [5]: does not cross the blood-brain barrier well
effect on amylin toxicity to pancreatic islet cells (amylin): inhibit pancreatic islet cell toxicity of diabetes-associated amylin; also recorded: protect pancreatic islet cells from the toxicity caused by amylin
octanol/water partition coefficient [6]: 0.665±0.037
brain/kidney ratio [7]: approximately 0.07
effect on Aβ-induced neurotoxicity and cell degeneration (Aβ [8]; in vitro, in words): inhibits fibrillar Aβ neurotoxicity; also recorded: inhibits Aβ-induced neurotoxicity and cell degeneration in vitro
concentration for complete protection from Aβ-induced toxicity (Aβ [8]; literature): ≤ 20 µM
concentration over which Aβ-induced toxicity is protected against (Aβ [8]; literature): over 2 μM

SMILES: O=C(O)c1cc(N=Nc2ccc(-c3ccc(N=Nc4ccc(O)c(C(=O)O)c4)cc3S(=O)(=O)O)c(S(=O)(=O)O)c2)ccc1O [2,2'-(SO3)2 CG]
binding activity to Aβ (Aβ(10-43) [1]): inactivity

SMILES: O=C(O)c1cc(N=Nc2ccc(-c3ccc(N=Nc4ccc(O)c(C(=O)O)c4)c(I)c3)cc2)ccc1O [3-ICG]
potency/affinity relative to reference compound (Aβ(10-43) [1]): slightly more potent than Chrysamine G

SMILES: O=C(O)c1cc(N=Nc2ccc(-c3ccc(N=Nc4ccc(O)c(C(=O)O)c4)cc3)cc2)ccc1O [Chrysamine G, 4,4'-bis(3-carboxy-4-hydroxyphenylazo)-biphenyl]
Bmax (Table 1) ([9]; AD, n = 5): 0.784 ± .061 pmol/μg prot
Bmax in AD brain higher than control ([9]; not significant (p=0.09)): 36%
KD in AD brain lower than control ([9]; not significant (p=0.29)): 16%
Bmax ([9]; typical AD brain sample, 48 NP/×200, FIG. 4B): 790 fmol/μg protein
energy of binding (Aβ(10-43) [1]): roughly 38 KJ/mole
saturable (specific) binding, share of total binding ([10]; AD brain homogenates): 60-80%
total binding ([10]; Cerebellum, AD (n = 11)): 73 ± 9 fmol/μg protein
total binding ([10]; Frontal Pole, AD (n = 10), p < 0.006): 124 ± 16 fmol/μg protein
total binding ([10]; Head of Caudate, AD (n = 7), p = 0.14): 123 ± 22 fmol/μg protein
total binding ([10]; Inferior Parietal, AD (n = 11), p < 0.03): 137 ± 19 fmol/μg protein
total binding ([10]; Occipital, AD (n = 11), p = 0.1): 95 ± 12 fmol/μg protein
total binding ([10]; Superior Temporal, AD (n = 11), p < 0.02): 121 ± 14 fmol/μg protein
total binding ([10]; Superior/Middle Frontal, AD (n = 11), p < 0.005): 130 ± 21 fmol/μg protein
saturable and total binding vs control ([10]; in words): greater in AD brain than in control
binding in Down's syndrome brain vs control [11]: above the control range
radioactivity in brain over time [12]: stayed nearly constant
total binding ([13]; Cerebellum, Control (n = 8)): 75 ± 13 fmol/μg protein
total binding ([13]; Frontal Pole, Control (n = 6)): 58 ± 8 fmol/μg protein
total binding ([13]; Head of Caudate, Control (n = 4)): 73 ± 11 fmol/μg protein
total binding ([13]; Inferior Parietal, Control (n = 8)): 76 ± 13 fmol/μg protein
total binding ([13]; Occipital, Control (n = 8)): 64 ± 16 fmol/μg protein
total binding ([13]; Superior Temporal, Control (n = 8)): 66 ± 17 fmol/μg protein
total binding ([13]; Superior/Middle Frontal, Control (n = 8)): 54 ± 10 fmol/μg protein
radioactivity that is unchanged Chrysamine G ([14]; 60 min, in words): essentially all
remaining at 1 h ([14]; mouse, iv, 0.05 uCi/g): > 95%
concentration range showing protective effects (PC-12 cells; Aβ(25-35)): 0.1 to 1.0 µM
protective effects in cells incubated with 1 μM Aβ(25-35) (PC-12 cells): protective effects at 0.1 and 1 μM
protective effect against Aβ(25-35)-induced decrease in MTT reduction (PC-12 cells): dose-dependent, protective effect; also recorded: protective effect which is dependent on both the concentration of Aβ(25-35) (FIG. 12) as well as the concentration of Chrysamine G; also recorded: prevents Aβ-induced cytotoxicity
effect on MTT reduction in the absence of Aβ(25-35) (PC-12 cells; vs control, FIG. 13): no significant difference
correlation of binding with NPs (r) ([15]; AD brains alone, p=0.007): 0.59
correlation of binding with NFTs (r) ([15]; AD brains alone, p=0.026): 0.50
correlation of binding with NP counts (r) ([15]; brains with cerebrovascular amyloid deposits, p=0.15): 0.49
correlation of binding with NP counts (r) ([15]; brains without amyloid angiopathy, p=0.01): 0.79
correlation of binding with NFTs (r) ([15]; controls included, p=0.001): 0.60
correlation of binding with NPs (r) ([15]; controls included, p=0.001): 0.69
Kd (Aβ(10-43) [16]): 250 to 400 nM
Bmax (Table 1) ([17]; Control, n = 6): 0.576 ± .092 pmol/μg prot
Bmax ([17]; typical control brain sample, FIG. 4B): 614 fmol/μg protein
